Here are results for 2 compounds from patent publication US8217061B2, “Polymorphs of sorafenib tosylate and sorafenib hemi-tosylate, and processes for preparation thereof” (Sicor Inc., priority 2008, dated 2012).

For data set [1] the following is noted: as reported in WO 2006/034797, page 2, lines 5-7; cited from earlier work.
Data set [2] can be described thus: stability of crystalline form in water suspension (no hydrolysis of the PTSA moiety). Format: physicochemical. The following applies: about 20° C., stable = no hydrolysis of the PTSA moiety in water for at least about 48 hours. On the procedure:
Sorafenib hemi-tosylate Form A is a stable crystalline form in water suspensions at a temperature of about 20° C., making it ideal for use in the preparation of a dosage form, particularly when the process of wet granulation is used.

For the compound `CNC(=O)c1cc(Oc2ccc(NC(=O)Nc3ccc(Cl)c(C(F)(F)F)c3)cc2)ccn1.Cc1ccc(S(=O)(=O)O)cc1` [form II, 4-(4-{3-[4-chloro-3-(trifluoromethyl)phenyl]ureido}phenoxy)-N2-methylpyridine-2-carboxamide 4-methylbenzenesulfonate], the “stability of polymorphic form” value in data set [1] was “meta stable”.
With “Sorafenib hemi-tosylate [Sorafenib hemi-tosylate Form A]”, in data set [2], the “stability of crystalline form in water suspensions” value is given as “stable”.
